Paper PMC9181938, “Fluorinated Analogues of Lepidilines A and C: Synthesis and Screening of Their Anticancer and Antiviral Activity” (Molecules, 2022)
Where two headings read alike, the source gives them in different places.

How the values were obtained:
[1] = Cytotoxicity screening at 10 µM (MTT); format: cell-based, Human; details: human, HeLa cells, read-out: Cell line (viability %) HeLa
[2] = Cytotoxicity screening at 10 µM (MTT); format: cell-based, Macaca mulatta; details: Macaca mulatta, LLC-MK2 cells, read-out: Cell line (viability %) LLC-MK2
[3] = Cytotoxicity MTT assay (0.1–1000 µM), CC50; format: cell-based, Human; details: human, HeLa cells
[4] = tested on: Human adenovirus 5 (AdV5); test: Antiviral screening at 10 µM; format: cell-based; details: Human mastadenovirus C, AdV5-infected cells, read-out: Cell line (viability %) AdV5
Protocol: (§1) Antiviral properties of compounds 1a, 1c, 1a[PF6], 1c[PF6], 9b[PF6], 9c[PF6], 10a–10d, 2a, and 2b were assessed against five viruses: Human herpesvirus 1 (HSV-1, VR-539), Human parainfluenza virus type 3 (HPIV-3, VR-93), Human adenovirus 5 (AdV5, VR-5), Human herpesvirus 5 (HCMV, VR-977), and Encephalomyocarditis virus (EMCV, VR-1479). Viruses were purchased from the American Type Culture Collection (ATCC, Manassas, VA, USA).
(§2) All tested compounds were dissolved in DMSO (dimethyl sulfoxide, Sigma-Aldrich, Darmstadt, Germany) and then suspended in Minimum Essential Medium (MEM; Sigma-Aldrich, Darmstadt, Germany) supplemented with 2% heat-inactivated fetal bovine serum (FBS; Sigma-Aldrich, Darmstadt, Germany), 2 mM L-glutamine (Sigma-Aldrich, Darmstadt, Germany), and 100 units/mL penicillin G with […] streptomycin (Sigma-Aldrich, Darmstadt, Germany).
(§3) Vero, LLC-MK2, NCTC clone 929, MRC-5, and HeLa cells were propagated in Minimum Essential Medium (MEM; Sigma-Aldrich, Darmstadt, Germany) supplemented with 10% heat-inactivated fetal bovine serum (FBS; Sigma-Aldrich, Darmstadt, Germany) and 100 units/mL penicillin G with […] streptomycin (Sigma-Aldrich, Darmstadt, Germany). Upon reaching 80–90% confluency, cells were harvested with 0.25% trypsin in 1 mM EDTA (Life Technologies, Warsaw, Poland) and seeded onto 96-well microplates at 2 × 10^5 cells/mL. After overnight incubation of cells at 37 °C in a humidified atmosphere containing 5% CO2, the culture medium was removed, and cells were inoculated with the respective virus solution in MEM supplemented with 2% FBS and antibiotics (HSV-1 MOI 0.005, 1000 virions/mL; HPIV-3 MOI 0.01, 2000 virions/mL; AdV5 MOI 0.005, 1000 virions/mL, EMCV MOI 0.005, 1000 virions/mL, HCMV 20 PFU (plaque forming units) per well). After a 1-h (HSV-1, HPIV-3, AdV5, and EMCV) or 2-h adsorption period (HCMV), the residual virus was removed, and the infected cells were further incubated with a 100 μL freshly prepared solution of tested compounds diluted with a maintenance medium supplemented with 2% FBS to obtain compound concentrations of 10 µM. The final concentration of DMSO in the medium was 0.1%. All experiments were carried out in triplicate. The cells monolayers were incubated with the compounds at 37 °C in a humidified atmosphere containing 5% CO2 until the typical cytopathic effect (CPE) was visible. Viral infection was evaluated by the MTT assay or plaque reduction assay (HCMV). After incubation with drugs, the cells were treated with 3-(4,5-dimethylthiazol-2-yl)-2,5-diphenyltetrazolium bromide dye solution (MTT, Sigma-Aldrich, Darmstadt, Germany) (25 μL, 5 mg/mL) for 2 h and lysed with solvent solution (100 μL) containing: DMF (Sigma-Aldrich, Darmstadt, Germany) (45 mL), SDS (Sigma-Aldrich, Darmstadt, Germany) (13.5 g), and distilled water (55 mL). After overnight incubation at 37 °C, the optical density at 550 nm and a reference wavelength of 670 nm were measured on a microplate spectrophotometer, Varioskan Lux (Thermo Fisher Scientific, Waltham, MA, USA). The number of HCMV plaques was counted under an inverted microscope Olympus IX73 (Olympus, Tokyo, Japan).

[5] = tested on: Human herpesvirus 1 (HSV-1); test: Antiviral screening at 10 µM; format: cell-based; details: Human alphaherpesvirus 1, antiviral screening, HSV-1-infected cells, read-out: Cell line (viability %) HSV-1
Protocol: as §1, §2, §3

[6] = tested on: Encephalomyocarditis virus (EMCV); test: Antiviral screening at 10 µM; format: cell-based; details: Cardiovirus A, EMCV-infected cells, read-out: Cell line (viability %) EMCV
Protocol: as §1, §2, §3

[7] = tested on: Human parainfluenza virus type 3 (HPIV-3); test: Antiviral screening at 10 µM; format: cell-based; details: Human respirovirus 3, antiviral screening, HPIV-3-infected cells, read-out: Cell line (viability %) HPIV-3
Protocol: as §1, §2, §3

[8] = Cytotoxicity MTT assay (0.1–1000 µM), CC50; format: cell-based, Mus musculus; details: Mus musculus, NCTC clone 929 cells, Table S2, range 0.1-1000 µM, NCTC clone 929; read-out: Cell line (CC50 M) NCTC clone 929
[9] = Cytotoxicity screening at 10 µM (MTT); format: cell-based, Mus musculus; details: Mus musculus, NCTC clone 929 cells, read-out: Cell line (viability %) NCTC clone 929

Work on `Cc1c(C)n(Cc2ccccc2)c(=S)n1Cc1ccccc1` [Compound 10a] yielded a viability at 48 h, 10 µM [1] of 61.1%, a viability at 48 h, 10 µM [2] of 64.9% and a CC50 at 48 h ([3]; MTT, 48 h, read-out: CC50 Cancer Cell Lines HeLa) of under 20 µM. For the same molecule, the CC50 at 48 h ([3]; Table S2, range 0.1-1000 µM, read-out: Cell line (CC50 M) HeLa) was 16.9 ± 2.19 µM, the viability at 10 µM [4] was 62% and the viability at 10 µM [5] was 29.7%. The viability at 10 µM [6] was 79.6%, the viability at 10 µM [7] was 69.2% and the CC50 at 48 h [8] was 46 ± 6.93 µM. The viability at 48 h, 10 µM [9] was 93.8%.
